# Test results reported in ChEMBL document CHEMBL1201862, “PubChem BioAssay data set” (2004).
# The source made the active and inactive calls. Rule as the data show it, for most assays here: actives have a measured EC50 and inactives only a lower limit.
# Legend:
# [1] = Luminescence Cell-Based Dose Confirmation HTS to Identify Activators of 5'UTR Stem-Loop Driven Alpha-Synuclein mRNA Translation in H4 Neuroglioblastoma Cells. [Related pubchem assays: 1829 (Project Summary), 1814 (Primary HTS)]; format: functional
# [2] = Luminescence Cell-Based Dose Response HTS to Identify Activators of Luciferase Translation or Activity in H4 […] Cells. [Related pubchem assays: 1829 (Project Summary), 1814 (Primary HTS)]; format: functional
# [3] = tested on: H4; experiment: Luminescence Cell-Based Dose Response HTS to Identify Activators of 5'UTR Stem-Loop Driven Prion Protein mRNA Translation in H4 Neuroglioblastoma Cells. [Related pubchem assays: 1829 (Project Summary), 1814 (Primary HTS)]; format: functional; settings: Homo sapiens
# [4] = biological target: Large T antigen (Simian virus 40, UniProt P03070); format: functional, Betapolyomavirus macacae;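 also: Confirmatory-stage PubChem screen for compounds that inhibit SV40 T antigen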
# [5] = biological target: T1, Rac GTPase-activating protein 1 (Homo sapiens, UniProt Q9H0H5); experiment: MgcRacGAP GTPase-activating activity inhibitors, confirmation, biochemical, ADP Hunter fluorescence, primary and confirmatory (AID 624330); format: functional
# T1 sequence (Q9H0H5 whole entry): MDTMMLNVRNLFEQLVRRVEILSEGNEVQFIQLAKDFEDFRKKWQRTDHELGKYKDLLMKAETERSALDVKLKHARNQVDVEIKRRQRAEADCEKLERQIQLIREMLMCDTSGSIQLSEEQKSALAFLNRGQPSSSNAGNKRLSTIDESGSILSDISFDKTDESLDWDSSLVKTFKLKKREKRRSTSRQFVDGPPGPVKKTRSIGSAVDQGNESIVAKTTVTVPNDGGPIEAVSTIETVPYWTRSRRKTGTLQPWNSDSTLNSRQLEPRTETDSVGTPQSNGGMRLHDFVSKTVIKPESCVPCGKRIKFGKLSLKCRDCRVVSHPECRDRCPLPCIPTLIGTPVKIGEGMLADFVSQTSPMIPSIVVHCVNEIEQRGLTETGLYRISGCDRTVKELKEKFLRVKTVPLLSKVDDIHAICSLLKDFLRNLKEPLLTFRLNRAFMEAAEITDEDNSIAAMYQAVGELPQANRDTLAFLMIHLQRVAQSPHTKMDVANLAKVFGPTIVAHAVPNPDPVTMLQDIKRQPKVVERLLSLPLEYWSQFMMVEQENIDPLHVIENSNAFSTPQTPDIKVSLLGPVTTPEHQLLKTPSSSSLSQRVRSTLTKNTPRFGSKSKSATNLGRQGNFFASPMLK
# [6] = Shn3 3'UTR reporter inhibitors, dose response, cell-based, Clone20 osteoblasts, firefly luciferase, cherry-picked (AID 624132); format: functional;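 also: firefly luciferase luminescence from reporter carrying the Shn3 3'UTR in osteoblasts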
# [7] = HepG2 cell cytotoxicity, dose response, cytotoxicity control for Shn3 inhibitor project, CellTiter-Glo, cherry-picked (AID 624134); format: functional, cell-based
# [8] = control 3'UTR Renilla luciferase suppression, dose response, counter-screen for Shn3 inhibitor project, cell-based, Clone20-Shn3RL, cherry-picked (AID 624133); format: functional
# [9] = biological target: T2, Corticotropin-releasing factor receptor 2/Corticotropin-releasing factor-binding protein (Homo sapiens, UniProt P24387+Q13324); experiment: activators of CRF receptor 2 with binding protein – uHTS hits, confirmation (AID 602473); format: functional; settings: read-out: EC50_Mean
# T2 sequence (Q13324 whole entry): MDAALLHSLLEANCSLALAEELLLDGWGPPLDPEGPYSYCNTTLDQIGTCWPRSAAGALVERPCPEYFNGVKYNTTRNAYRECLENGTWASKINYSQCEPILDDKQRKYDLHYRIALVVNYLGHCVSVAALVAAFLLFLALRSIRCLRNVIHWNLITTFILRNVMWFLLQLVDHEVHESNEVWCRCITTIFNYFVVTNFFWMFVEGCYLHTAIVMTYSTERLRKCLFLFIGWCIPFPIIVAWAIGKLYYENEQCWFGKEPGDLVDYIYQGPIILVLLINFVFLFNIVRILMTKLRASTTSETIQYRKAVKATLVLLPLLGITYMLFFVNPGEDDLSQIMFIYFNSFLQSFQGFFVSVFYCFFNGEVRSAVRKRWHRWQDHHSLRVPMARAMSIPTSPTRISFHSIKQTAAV
# T2 sequence (P24387 whole entry): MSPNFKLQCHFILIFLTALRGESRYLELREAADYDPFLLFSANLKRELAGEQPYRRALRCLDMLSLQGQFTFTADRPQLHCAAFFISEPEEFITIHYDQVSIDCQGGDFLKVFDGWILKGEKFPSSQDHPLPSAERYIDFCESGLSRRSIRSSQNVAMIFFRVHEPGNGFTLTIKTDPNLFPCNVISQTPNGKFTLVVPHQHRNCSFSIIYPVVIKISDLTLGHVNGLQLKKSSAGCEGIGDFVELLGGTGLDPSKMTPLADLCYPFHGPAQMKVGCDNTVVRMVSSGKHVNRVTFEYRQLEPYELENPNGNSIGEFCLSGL
# [10] = Luminescence Cell-Based Dose Response HTS to Identify Inhibitors of 5'UTR Stem-Loop Driven Prion Protein mRNA Translation in H4 Neuroglioblastoma Cells. [Related pubchem assays: 1827 (Project Summary), 1813 (Primary HTS)]; format: functional
# [11] = inhibitors of SNCA 5'UTR-driven reporter translation, confirmation, H4 neuroglioma cells, luminescence (AID 1988); format: functional, cell-based
# [12] = inhibitors of firefly luciferase expression or activity, dose response, H4 neuroglioma cells, luminescence (AID 1990); format: functional, cell-based
# [13] = tested on: INS1; experiment: beta cell apoptosis inhibitors, cytokine rescue, dose response, luminescence, retest (AID 449756); format: functional, cell-based; settings: Rattus norvegicus;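 also: cell death triggered by IL-1 beta plus TNF-alpha plus IFN-gamma mixture; protective hits raise ATP signal compared with cytokine alone wells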
# [14] = NIH-3T3 fibroblast cytotoxicity, dose response, cytotoxicity control, cell-based, fluorescence, Alamar Blue, secondary assay (AID 2327); format: functional;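 also: NIH-3T3 mouse fibroblasts cultured with fluconazole at 8 µg/mL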
# [15] = C. albicans growth with fluconazole, confirmation, fluorescence, retest (AID 2467); format: functional, cell-based
# [16] = inhibitors of intracellular T. cruzi replication, confirmation, NIH3T3 host cells, beta-gal luminescence (AID 2044); format: functional, cell-based;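 also: intracellular parasites grown in NIH/3T3 mouse fibroblasts as host cells; luminescent beta-galactosidase reporter signal from transgenic T. cruzi replicating inside host cells; inhibitors lower the luminescence signal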
# [17] = cytotoxicity toward NIH3T3 fibroblasts, dose response, counter-screen, cell-based, ATP luminescence, mouse fibroblasts (AID 2010); format: functional;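 also: cells exposed to compound for about 90 hours before reading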
# Chain of Large T antigen (P03070 whole entry): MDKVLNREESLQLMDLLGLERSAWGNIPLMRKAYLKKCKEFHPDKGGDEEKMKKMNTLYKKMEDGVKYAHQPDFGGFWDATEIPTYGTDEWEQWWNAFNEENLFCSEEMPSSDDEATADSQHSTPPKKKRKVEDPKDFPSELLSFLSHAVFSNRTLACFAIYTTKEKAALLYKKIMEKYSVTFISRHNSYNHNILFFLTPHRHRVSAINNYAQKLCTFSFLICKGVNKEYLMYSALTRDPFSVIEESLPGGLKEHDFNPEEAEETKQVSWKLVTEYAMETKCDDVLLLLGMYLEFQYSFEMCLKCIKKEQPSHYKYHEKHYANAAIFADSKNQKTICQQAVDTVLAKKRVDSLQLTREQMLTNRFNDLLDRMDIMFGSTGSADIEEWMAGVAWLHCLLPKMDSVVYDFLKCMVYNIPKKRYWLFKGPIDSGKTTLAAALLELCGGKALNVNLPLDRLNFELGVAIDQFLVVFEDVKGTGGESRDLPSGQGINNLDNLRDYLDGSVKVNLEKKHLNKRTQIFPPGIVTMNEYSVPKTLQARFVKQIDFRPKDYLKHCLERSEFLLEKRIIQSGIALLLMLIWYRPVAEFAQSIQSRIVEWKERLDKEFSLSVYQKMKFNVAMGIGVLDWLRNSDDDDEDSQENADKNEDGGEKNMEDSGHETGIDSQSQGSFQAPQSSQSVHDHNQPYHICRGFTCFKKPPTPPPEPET
smiles,measurement,setting,value
c1ccc(CNc2ncnc3c2ncn3C2CCCCO2)cc1 (centres undefined),EC50,[1],5.99 µM (active)
same,EC50,[2],4.67 µM (active)
same,EC50,[3],> 120 µM (not active)
O=C(Nc1ccc(-c2cn3c(n2)SCC3)cc1)c1ccc2ccccc2n1,EC50,[1],15.5 µM (active)
same,EC50,[2],24 µM (active)
same,EC50,[3],16.8 µM (active)
OCC1CCCN(C(=S)Nc2ccc(Nc3ccccc3)cc2)C1 (centres undefined),IC50,[4],8.16 µM (active)
same,IC50,[5],41.8 µM (active)
O=C(CN1CCN(c2ccc(O)cc2)CC1)NC(=O)NCc1ccco1,IC50,[5],52.6 µM (active)
COc1ccc(COc2ccccc2C(=O)NCc2ccccc2)cc1F,AC50,[6],4.76 µM (active)
same,AC50,[7],52.4 µM (active)
same,AC50,[8],10.1 µM (active)
CC(C)CC(NC(=O)c1ccccc1)C(=O)N/N=C/c1ccco1 (centres undefined),EC50,[9],4.81 µM (active)
Clc1ccccc1CNCc1ccc2c(c1)OCO2,IC50,[5],257 µM (active)
Cc1ccc(-n2nnnc2-c2cnc(-c3cccnc3)nc2C(F)(F)F)cc1,AC50,[6],5.89 µM (active)
same,AC50,[7],57.4 µM (active)
same,AC50,[8],23 µM (active)
Nc1ccc(Nc2ccccc2)c(Cl)c1,IC50,[5],17.3 µM (active)
CN1CN(C)c2cccc3cccc1c23,IC50,[4],73.9 µM (active)
O=c1[nH]c(=O)c2nnc(N/N=C\c3ccc(O)cc3)nc2[nH]1,IC50,[4],16.8 µM (active)
CCc1ccc(OC(=O)Nc2ccccc2)cc1,EC50,[1],6.4 µM (active)
same,EC50,[2],> 120 µM (not active)
same,EC50,[3],7.7 µM (active)
O=C(c1cc(-c2ccc3c(c2)OCO3)on1)N1CCCCC1,EC50,[10],10.3 µM (active)
same,EC50,[11],7.22 µM (inconclusive)
COc1ccc(-c2cc3ccc(OCc4nn[nH]n4)cc3oc2=O)cc1,EC50,[12],13.9 µM (active)
same,EC50,[10],14.6 µM (active)
same,EC50,[11],13.3 µM (active)
COc1cccc(/C=N/NC(=O)c2[nH]nc3c2CCc2ccccc2-3)c1,EC50,[1],> 120 µM (not active)
same,EC50,[2],> 60 µM (not active)
same,EC50,[3],> 120 µM (not active)
Nc1ccc(N=Nc2ccc(N)cc2)cc1,IC50,[5],22 µM (active)
Cn1c2ccccc2c2cc(C(=O)N3CCN(CCO)CC3)sc21,EC50,[1],> 120 µM (not active)
same,EC50,[2],15.3 µM (active)
same,EC50,[3],33.8 µM (active)
Oc1nc(COc2ccc(Cl)cc2Cl)nc2ccccc12,EC50,[1],0.125 µM (active)
same,EC50,[2],0.107 µM (active)
same,EC50,[3],0.148 µM (active)
CCCCCn1c(=O)c(C(=O)NC(C)c2ccccc2)c(O)c2ccccc21 (centres undefined),AC50,[13],5.84 µM (active)
same,AC50,[6],11.7 µM (active)
same,AC50,[7],> 70 µM (inactive)
same,AC50,[8],6.26 µM (active)
O=c1c2ccccc2nc(/C=C/c2ccc(O)cc2)n1-c1ccccc1O,IC50,[5],62.5 µM (active)
c1ccc(-c2cn(CC3CCCCC3)nn2)cc1,EC50,[1],0.146 µM (active)
same,EC50,[2],0.236 µM (active)
same,EC50,[3],> 120 µM (inconclusive)
Cc1cc(NC(=O)c2cccnc2)ccc1NC(=O)c1cc2ccccc2o1,EC50,[12],18.6 µM (active)
same,EC50,[10],17.7 µM (active)
same,EC50,[11],20.6 µM (active)
O=C(NCCNCC(O)COc1ccc(O)cc1)N1CCOCC1 (centres undefined),IC50,[5],118 µM (active)
Cc1ccc(NC(=O)Cc2nn(C)c(=O)c3ccccc23)cc1F,AC50,[13],3.98 µM (active)
same,AC50,[6],0.73 µM (active)
same,AC50,[7],3.46 µM (active)
same,AC50,[8],2.3 µM (active)
Cc1nn(-c2ccccn2)c2c1-c1nc(N)ncc1CC2,EC50,[1],12.3 µM (active)
same,EC50,[2],1.98 µM (active)
CCS(=O)(=O)C1=NN2C(=N)/C(=C\c3ccc(OC(=O)c4ccco4)c(Br)c3)C(=O)N=C2S1,IC50,[4],> 100 µM (active)
CC(C)C(OC(=O)c1ccccc1)c1nccc2ccccc12 (centres undefined),EC50,[1],21.5 µM (active)
same,EC50,[2],17.8 µM (active)
same,EC50,[3],39.5 µM (active)
Cc1ccc(-c2c[n+](-c3ccc(OC(F)F)cc3)c3n2CCCCC3)cc1,EC50,[14],> 150 µM (inconclusive)
same,EC50,[15],> 38 µM (not active)
same,AC50,[13],1.52 µM (active)
C[C@H](NC(=O)c1[nH]cnc1C(=O)NCc1ccc(CNC(=O)OC(C)(C)C)cc1)c1ccccc1,AC50,[6],11.7 µM (active)
same,AC50,[7],> 70 µM (inactive)
same,AC50,[8],14.9 µM (active)
CCOC(=O)c1ccc(NCn2c(=O)oc3ccccc32)cc1,EC50,[9],> 53 µM (inactive)
CC(=O)OCC1OC(n2cc(F)c(=O)[nH]c2=O)C(OC(C)=O)C1OC(C)=O (centres undefined),EC50,[1],> 120 µM (not active)
same,EC50,[2],117 µM (active)
same,EC50,[3],> 120 µM (not active)
C=C1C(=O)C23C(O)C1CCC2C12COC3(O)C(O)C1C(C)(C)CCC2O (centres undefined),AC50,[6],3.3 µM (active)
same,AC50,[8],8.14 µM (active)
CN(C)/C=C(\C#N)C(=O)Nc1ccc(O)cc1F,IC50,[4],17.6 µM (active)
COc1ccccc1CNc1nc(NCc2ccccc2OC)c2sccc2n1,AC50,[6],6.33 µM (active)
same,AC50,[7],22.1 µM (active)
same,AC50,[8],9.79 µM (active)
Cc1nnsc1-c1c(C(=O)Oc2ccccc2)c(C)nn1-c1ccccc1,EC50,[12],18.8 µM (active)
same,EC50,[10],> 120 µM (not active)
same,EC50,[11],19.8 µM (active)
CC(C)OC(=O)Cn1nnc2c(cnn2-c2ccccc2)c1=O,EC50,[1],13.4 µM (active)
same,EC50,[2],13.1 µM (active)
same,EC50,[3],20.7 µM (active)
Cc1cc(-c2cc(C)c(N)c(C)c2)cc(C)c1N,IC50,[5],10.8 µM (active)
O=C(Nc1ncc(S(=O)(=O)c2ccc([N+](=O)[O-])cc2)s1)c1cccc2ccccc12,EC50,[16],0.221 µM (active)
same,EC50,[17],> 60 µM (not active)
same,EC50,[9],4.23 µM (active)
Cc1ccc(Nc2nc(=O)c3cccnc3s2)cc1,EC50,[2],2.71 µM (active)
same,EC50,[3],> 120 µM (not active)
CCN(CC)S(=O)(=O)c1cccc(NC(=O)CNC2CCCCCC2)c1,IC50,[5],185 µM (active)
